# Numbering of substitutions follows the chain as printed.
# Assays:
# Experiment in all cases: ethidium dye uptake in transfected N2a cells
# Type in all cases: cell-based
# [1] = target: T1, mPanx1 (Mus musculus, UniProt Q9JIP4); conditions: 20 uM EtBr, 5 min, pH 7.4; channel permeant dye
# T1 construct: gene Panx1; full length aa 1-426, C-terminal EYFP fusion (pEYFP-N1), transient in mouse N2a cells
# [2] = target: T2, drPanx1b (Danio rerio, UniProt F1QSR7, R75A/H238Y); conditions: 100 uM BBG, 20 uM EtBr, 5 min, pH 7.4; endogenous Panx1 and P2X7-R in N2a host
# T2 construct: gene panx1b; full length aa 1-422, C-terminal EYFP fusion (pEYFP-N1), transient in mouse N2a cells
# T2 sequence (F1QSR7 1-422 R75A/H238Y): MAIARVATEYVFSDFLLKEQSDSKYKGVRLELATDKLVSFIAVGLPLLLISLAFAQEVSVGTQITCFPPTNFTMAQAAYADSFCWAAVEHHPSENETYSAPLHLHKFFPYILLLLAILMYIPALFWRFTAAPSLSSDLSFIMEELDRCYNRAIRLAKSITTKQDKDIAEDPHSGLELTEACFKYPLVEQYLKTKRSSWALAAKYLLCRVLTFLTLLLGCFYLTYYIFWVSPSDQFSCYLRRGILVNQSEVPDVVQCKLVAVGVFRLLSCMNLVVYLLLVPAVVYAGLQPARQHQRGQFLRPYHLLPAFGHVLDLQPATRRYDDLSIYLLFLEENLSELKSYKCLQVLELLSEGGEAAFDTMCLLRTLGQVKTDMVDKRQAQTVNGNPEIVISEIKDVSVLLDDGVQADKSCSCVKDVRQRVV
# [3] = target: T3, drPanx1a (Danio rerio, UniProt A0A8M1PG01, C76E); conditions: 100 uM BBG, 20 uM EtBr, 5 min, pH 7.4; endogenous Panx1 and P2X7-R in N2a host
# T3 construct: gene panx1a; full length aa 1-417 (natural Cys at position 76), C-terminal EYFP fusion (pEYFP-N1), transient in mouse N2a cells
# T3 sequence (A0A8M1PG01 1-417 C76E): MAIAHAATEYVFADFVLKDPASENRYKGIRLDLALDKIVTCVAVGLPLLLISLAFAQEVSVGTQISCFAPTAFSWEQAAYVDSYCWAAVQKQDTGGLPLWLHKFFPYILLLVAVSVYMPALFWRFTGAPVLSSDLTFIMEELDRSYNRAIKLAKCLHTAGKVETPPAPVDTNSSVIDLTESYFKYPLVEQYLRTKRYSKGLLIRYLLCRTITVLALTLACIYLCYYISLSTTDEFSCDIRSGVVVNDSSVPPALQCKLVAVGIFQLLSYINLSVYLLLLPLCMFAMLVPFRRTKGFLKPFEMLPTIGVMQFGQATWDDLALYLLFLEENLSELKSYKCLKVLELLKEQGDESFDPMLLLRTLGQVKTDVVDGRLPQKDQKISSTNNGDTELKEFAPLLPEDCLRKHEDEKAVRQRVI
# [4] = target: T4, drPanx1a (Danio rerio, UniProt A0A8M1PG01)
# T4 construct: gene panx1a; full length aa 1-417 (natural Cys at position 76), C-terminal EYFP fusion (pEYFP-N1), transient in mouse N2a cells
# T4 sequence (A0A8M1PG01 1-417): T3 sequence (A0A8M1PG01 1-417 C76E) with E76C
# [5] = target: T5, drPanx1a (Danio rerio, UniProt A0A8M1PG01, C76A); conditions: 100 uM BBG, 20 uM EtBr, 5 min, pH 7.4; endogenous Panx1 and P2X7-R in N2a host
# T5 construct: gene panx1a; full length aa 1-417 (natural Cys at position 76), C-terminal EYFP fusion (pEYFP-N1), transient in mouse N2a cells
# T5 sequence (A0A8M1PG01 1-417 C76A): T3 sequence (A0A8M1PG01 1-417 C76E) with E76A
# [6] = target: T6, drPanx1a (Danio rerio, UniProt A0A8M1PG01, C76K); conditions: 100 uM BBG, 20 uM EtBr, 5 min, pH 7.4; endogenous Panx1 and P2X7-R in N2a host
# T6 construct: gene panx1a; full length aa 1-417 (natural Cys at position 76), C-terminal EYFP fusion (pEYFP-N1), transient in mouse N2a cells
# T6 sequence (A0A8M1PG01 1-417 C76K): T3 sequence (A0A8M1PG01 1-417 C76E) with E76K
# [7] = target: T7, drPanx1b (Danio rerio, UniProt F1QSR7, R75K/H238Y); conditions: 100 uM BBG, 20 uM EtBr, 5 min, pH 7.4; endogenous Panx1 and P2X7-R in N2a host
# T7 construct: gene panx1b; full length aa 1-422, C-terminal EYFP fusion (pEYFP-N1), transient in mouse N2a cells
# T7 sequence (F1QSR7 1-422 R75K/H238Y): T2 sequence (F1QSR7 1-422 R75A/H238Y) with A75K
# [8] = target: T1, mPanx1; conditions: read-out: % inhibition at 100 uM
# [9] = target: T8, drPanx1b (Danio rerio, UniProt F1QSR7, R75E/H238Y); conditions: 100 uM BBG, 20 uM EtBr, 5 min, pH 7.4; endogenous Panx1 and P2X7-R in N2a host
# T8 construct: gene panx1b; full length aa 1-422, C-terminal EYFP fusion (pEYFP-N1), transient in mouse N2a cells
# T8 sequence (F1QSR7 1-422 R75E/H238Y): T2 sequence (F1QSR7 1-422 R75A/H238Y) with A75E
# [10] = target: T9, drPanx1b (Danio rerio, UniProt F1QSR7, H238Y)
# T9 construct: gene panx1b; full length aa 1-422, C-terminal EYFP fusion (pEYFP-N1), transient in mouse N2a cells
# T9 sequence (F1QSR7 1-422 H238Y): T2 sequence (F1QSR7 1-422 R75A/H238Y) with A75R
# [11] = target: T10, drPanx1b (Danio rerio, UniProt F1QSR7, R75C/H238Y); conditions: 100 uM BBG, 20 uM EtBr, 5 min, pH 7.4; endogenous Panx1 and P2X7-R in N2a host
# T10 construct: gene panx1b; full length aa 1-422, C-terminal EYFP fusion (pEYFP-N1), transient in mouse N2a cells
# T10 sequence (F1QSR7 1-422 R75C/H238Y): T2 sequence (F1QSR7 1-422 R75A/H238Y) with A75C
# [12] = target: T11, drPanx1a (Danio rerio, UniProt A0A8M1PG01, C76R); conditions: 100 uM BBG, 20 uM EtBr, 5 min, pH 7.4; endogenous Panx1 and P2X7-R in N2a host
# T11 construct: gene panx1a; full length aa 1-417 (natural Cys at position 76), C-terminal EYFP fusion (pEYFP-N1), transient in mouse N2a cells
# T11 sequence (A0A8M1PG01 1-417 C76R): T3 sequence (A0A8M1PG01 1-417 C76E) with E76R
# [13] = target: T3, drPanx1a; conditions: 3 mM ATP, 20 uM EtBr, 5 min, pH 7.4; endogenous Panx1 and P2X7-R in N2a host
# [14] = target: T2, drPanx1b; conditions: 500 uM ATP, 20 uM EtBr, 5 min, pH 7.4; endogenous Panx1 and P2X7-R in N2a host
# T1 sequence (Q9JIP4 whole entry, the tested form may be a part): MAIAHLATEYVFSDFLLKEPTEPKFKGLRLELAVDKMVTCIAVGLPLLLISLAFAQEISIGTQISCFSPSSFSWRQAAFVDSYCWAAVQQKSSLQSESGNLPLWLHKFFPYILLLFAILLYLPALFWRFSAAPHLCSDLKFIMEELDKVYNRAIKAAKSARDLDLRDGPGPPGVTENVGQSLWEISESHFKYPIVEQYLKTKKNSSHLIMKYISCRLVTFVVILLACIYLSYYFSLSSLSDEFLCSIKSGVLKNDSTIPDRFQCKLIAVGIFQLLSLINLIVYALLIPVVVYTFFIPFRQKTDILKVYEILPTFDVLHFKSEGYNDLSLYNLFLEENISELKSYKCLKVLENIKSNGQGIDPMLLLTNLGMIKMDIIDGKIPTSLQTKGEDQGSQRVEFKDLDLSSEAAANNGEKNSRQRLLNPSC
compound,measurement,setting,value
CC[n+]1c(-c2ccccc2)c2cc(N)ccc2c2ccc(N)cc21 [Ethidium bromide],ethidium dye uptake in transfected N2a cells,[1],EtBr uptake was significantly increased in mPanx1
CCOc1ccc(Nc2ccc(C(=C3C=CC(=[N+](CC)Cc4cccc(S(=O)(=O)[O-])c4)C=C3C)c3ccc(N(CC)Cc4cccc(S(=O)(=O)O)c4)cc3C)cc2)cc1 [brilliant blue G],% inhibition at 100 uM,[2],drPanx1b WT > R75C > R75K ≥ R75A ≥ R75E
same,% inhibition at 100 uM,[3],BBG: drPanx1a-C76R > C76K > WT ≥ C76A > C76E
same,inhibition at 100 µM,[4],33.4 ± 1.7%
same,% inhibition at 100 uM,[5],BBG: drPanx1a-C76R > C76K > WT ≥ C76A > C76E
same,% inhibition at 100 uM,[6],BBG: drPanx1a-C76R > C76K > WT
same,% inhibition at 100 uM,[7],drPanx1b WT > R75C > R75K ≥ R75A ≥ R75E
same,inhibition at 100 µM,[8],40.6 ± 1.4%
same,% inhibition at 100 uM,[9],drPanx1b WT > R75C > R75K ≥ R75A ≥ R75E
same,inhibition at 100 µM,[10],64.1 ± 1%
same,% inhibition at 100 uM,[11],drPanx1b WT > R75C > R75K ≥ R75A ≥ R75E
same,% inhibition at 100 uM,[12],BBG: drPanx1a-C76R > C76K > WT
Nc1ncnc2c1ncn2[C@@H]1O[C@H](COP(=O)(O)OP(=O)(O)OP(=O)(O)O)[C@@H](O)[C@H]1O [ATP],inhibition at 3000 µM,[4]; read-out: % inhibition at 3 mM,20.2 ± 2.2%
same,inhibition at 500 µM,[10],27.3 ± 1.9%
same,% inhibition at 3 mM,[13],ATP: drPanx1a-C76E > C76A ≥ WT
same,% inhibition at 500 uM,[14],drPanx1b WT ≥ R75K ≥ R75C > R75E ≥ R75A

# Source: article PMC3808535, “Pannexin1 Channel Proteins in the Zebrafish Retina Have Shared and Unique Properties” (PLoS ONE, 2013)
